# Assay results as given in patent EP3981864A1, “DETERGENT COMPOSITION” (priority 2020, dated 2022).
# Tests used:
# [1] = molecular target: T1, Nicotiana tabacum αDOX (SEQ ID NO: 6), fatty acid alpha-dioxygenase, 082031, N-terminal His-tag variant SEQ ID NO: 259 (Nicotiana tabacum, UniProt A0A1S3ZX38); experiment: Alpha-dioxygenase activity assay (oxygen consumption, TON); type: biochemical; conditions: fatty acid 100 µM, enzyme 6 ppm, 50 mM HEPES pH 9.0, 37°C; initial rate of oxygen consumption / enzyme concentration
# T1 construct: made in house; host or cells: Escherichia coli BL21 (DE3), pET30a
# T1 sequence (A0A1S3ZX38 1-643): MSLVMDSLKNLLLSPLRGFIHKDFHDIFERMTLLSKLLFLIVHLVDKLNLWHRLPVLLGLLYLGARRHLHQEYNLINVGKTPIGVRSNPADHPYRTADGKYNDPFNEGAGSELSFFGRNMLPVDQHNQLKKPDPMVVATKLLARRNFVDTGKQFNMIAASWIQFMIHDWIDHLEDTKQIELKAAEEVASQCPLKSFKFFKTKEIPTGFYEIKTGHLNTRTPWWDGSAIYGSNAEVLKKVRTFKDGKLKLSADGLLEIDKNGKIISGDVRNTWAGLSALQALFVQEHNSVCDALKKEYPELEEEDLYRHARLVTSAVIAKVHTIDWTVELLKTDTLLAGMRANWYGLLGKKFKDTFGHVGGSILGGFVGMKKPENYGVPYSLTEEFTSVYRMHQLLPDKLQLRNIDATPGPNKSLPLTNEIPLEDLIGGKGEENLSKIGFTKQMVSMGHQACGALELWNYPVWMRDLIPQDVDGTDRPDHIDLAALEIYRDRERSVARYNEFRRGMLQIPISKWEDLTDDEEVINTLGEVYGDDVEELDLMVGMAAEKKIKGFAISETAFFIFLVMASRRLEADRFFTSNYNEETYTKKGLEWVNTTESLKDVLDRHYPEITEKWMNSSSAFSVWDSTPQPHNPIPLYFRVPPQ
# Description: (§1) Nicotiana tabacum αDOX (SEQ ID NO: 6) is a fatty acid alpha-dioxygenase that converts fatty acids into the corresponding 2-hydroperoxy fatty acids and is included as an example of the present invention. A codon optimized gene (SEQ ID NO: 258) encoding for an alpha-dioxygenase variant (SEQ ID NO: 259), including an N-terminal amino acid sequence containing a His-tag was designed and synthesized by Genscript. After gene synthesis, the protein was expressed and purified. In brief, the complete synthetic gene sequence was subcloned into a pET30a vector using the NdeI/HindIII cloning sites. For heterologous expression, Escherichia coli BL21 (DE3) cells were transformed with the recombinant plasmid and a single colony was inoculated into LB medium containing kanamycin (50 mg/L). A pre-starter culture was then inoculated into flasks containing Magic Media (Thermo Fisher, Catalog # K6803) supplemented with kanamycin (50 mg/L) and incubated at 16 °C for 72 h. At an OD600nm = 0.5 - 1.0, 5-aminolevulinic acid (final concentration 0.5 mM) was added. Cells were harvested by centrifugation at 5000 rpm and 4°C and the pellet was lysed using a bacterial cell lysis buffer (B-PER - Themo Fisher, Waltham, MA). After centrifugation, the supernatant was collected, and the protein was purified by one-step purification using HisPur™ Ni-NTA Spin Columns (Thermo Scientific, Catalog # 88226) and standard protocols known in the art. The protein was concentrated using a 10 kDa MW cutoff Amicon Ultra centrifugal filter unit (Millipore Sigma, Catalog# UFC901024), followed by desalting using a disposable PD-10 desalting column (GE Healthcare Life Sciences, Catalog# 17085101) and a buffer containing 50 mM Tris-HCl, 500 mM NaCl, and 10% Glycerol at pH 8.0. […]
# (§2) Reactions with alpha-dioxygenases were performed as follows. […] The reaction was incubated for up to 10 minutes at 37°C with 200 rpm agitation and the conversion was monitored using an oxygen sensor. The TON (in s-1) were calculated as the ratio between the initial rate of oxygen consumption (in µM/s) and the concentration of enzyme (in µM). […]
# [2] = test system: Gossypium raimondii αDOX (SEQ ID NO: 5), fatty acid alpha-dioxygenase, A0A0D2W0W0, N-terminal His-tag variant SEQ ID NO: 257; experiment: as above; type: biochemical; conditions: fatty acid 100 µM, enzyme 6 ppm, 50 mM HEPES pH 9.0, 37°C; initial rate of oxygen consumption / enzyme concentration
# Description: as §1, with “Gossypium raimondii αDOX” for “Nicotiana tabacum αDOX”, “NO: 5)” for “NO: 6)”, “NO: 256)” for “NO: 258)”, “NO: 257),” for “NO: 259),”
# as §2
smiles,measurement,setting,value
CCCCCCCC/C=C\CCCCCCCC(=O)O [Oleic Acid],"Oleic Acid, TON",[1],0.78 s⁻¹
same,"Oleic Acid, TON",[2],1.68 s⁻¹
CCCCCCCCCCCCCCCC(=O)O [Palmitic Acid],"Palmitic Acid, TON",[1],3.07 s⁻¹
same,"Palmitic Acid, TON",[2],2.56 s⁻¹
CCCCCCCCCCCCCCCCCC(=O)O [Stearic Acid],"Stearic Acid, TON",[1],2.66 s⁻¹
same,"Stearic Acid, TON",[2],1.68 s⁻¹
